The experiment deals with transgenic (mRen-2)27 rats. As to the kind of experiment: Streptozotocin-diabetic Ren-2 rat model of diabetic complications. The format is in vivo. To be noted: administered i.v. at a dose of from 0.1 to 10 mg/kg. Here is the method:
Ren-2 rats (e.g. as disclosed in D. J. Kelly et al, Kidney Int, Vol 54, 1998, p343-352)
The effect of Compound A, B or C, on diabetic complications is tested in transgenic (mRen-2)27 rats (also called “Ren-2 rats”), model that develops hypertension and many of the structural and functional characteristics of human diabetic nephropathy when diabetes is induced by streptozotocin, resulting in a progressive disease with many of the structural, functional and molecular characteristics of human diabetic nephropathy. The progression of this disease is associated with an increase in renal and cardiac growth factors and extra cellular matrix accumulation.
The effect of the compounds of the invention on diabetic nephropathy may be studied with the Ren-2 rats model, as disclosed in D. J. Kelly et al, Diabetes, Vol 52, February 2003, p512-518: Diabetes is induced by injection of streptozotocin, 55 mg/kg. All diabetic rats receive insulin (human isophane) 2 units/day to promote body weight and reduce mortality. The experimental period continues for 16 weeks in Ren-2 rats to study advanced renal and cardiac disease. Rats are randomised to the following groups:
Group 1: non-diabetic Ren-2, no drug Group 2: non-diabetic Ren2, Compound C Group 3: non-diabetic Ren-2, Compound A Group 4: diabetic Ren-2 Group 5: diabetic Ren-2, drug Compound C, dose 1 Group 6: diabetic Ren-2, drug Compound A, dose 1 Group 7: diabetic Ren-2, drug Compound C, dose 2 Group 8: diabetic Ren-2, drug Compound A, dose 2 N=20 per group (160 rats) […]
The spatial distribution and quantitation of the immunohistochemistry by image analysis provide specific information regarding the cell type and location of disease progression. […]
The right kidney is snap frozen in liquid nitrogen and used for molecular biological experiments. Tissue and cell specific changes in expression may be quantifyed using immunohistochemistry with quantitative image analysis and real time PCR (ABI Prism 7700, Perkin Elmer Biosystems, Foster City, Calif.) with TaqMan, Such a PCR analysis is a technique well known by the one skilled in the art.
As for `CN1CCN(c2nc(C3=C(c4c[nH]c5ccccc45)C(=O)NC3=O)c3ccccc3n2)CC1` [Compound A, 3-(1.H.-indol-3-yl)-4-[2-(4-methyl-piperazin-1-yl)-quinazolin-4-yl]-pyrrole-2,5-dione], the “effect on the diabetic complications” value was “beneficial effect”.
The entry for `O=C1NC(=O)C(c2c[nH]c3ccccc23)=C1c1nc(N2CCNCC2)nc2ccccc12` [Compound B, 3-(1.H.-indol-3-yl)-4-[2-(piperazin-1-yl)-quinazolin-4-yl]-pyrrole-2,5-dione] is “beneficial effect”; for `Cc1cccc2c(C3=C(c4nc(N5CCNC6(CC6)C5)cc5ccccc45)C(=O)NC3=O)c[nH]c12` [Compound C, 3-[3-(4,7-Diaza-spiro[2,5]oct-7-yl)-isoquinolin-1-yl]-4-(7-methyl-1H-indol-3-yl)-pyrrole-2,5-dione] it is “beneficial effect”.

These data come from patent US20110251203A1, “USE OF PKC INHIBITORS IN DIABETIC COMPLICATIONS” (priority 2006, published 2011).
